Results taken from PMC4427029 (Cell, 2015).
Like-named read-outs stand apart in the source and are kept apart here.

Columns and labels:
AT1R = conditions: cited from earlier work
AT1R single mutants [1] = experiment: Ligand binding assays on AT1R single mutants, COS-1 cell membranes; conditions: residues Tyr35, Trp84, Arg167 and Lys199
AT1R single mutants [2] = molecular target: T1, AT1R single mutants (Homo sapiens, UniProt P30556, P285A); experiment: as above; conditions: Pro285Ala mutant
T1 sequence (P30556 1-359 P285A): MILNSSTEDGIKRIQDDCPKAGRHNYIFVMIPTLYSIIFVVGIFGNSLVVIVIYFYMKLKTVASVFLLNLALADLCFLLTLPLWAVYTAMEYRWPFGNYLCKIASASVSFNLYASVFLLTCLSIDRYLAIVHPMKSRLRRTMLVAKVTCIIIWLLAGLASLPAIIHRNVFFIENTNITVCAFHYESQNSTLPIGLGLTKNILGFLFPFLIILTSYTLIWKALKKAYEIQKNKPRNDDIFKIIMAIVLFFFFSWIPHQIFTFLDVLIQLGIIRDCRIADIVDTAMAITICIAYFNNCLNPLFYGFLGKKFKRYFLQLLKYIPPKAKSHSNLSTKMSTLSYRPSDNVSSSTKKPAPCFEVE

Compound: CCc1cc2c(c(CC)n1)CCC(=O)N2Cc1ccc(-c2ccccc2-c2nn[nH]n2)cc1 [ZD7155]
- potency and duration compared with losartan (AT1R; ref Junggren et al., 1996): more potent and longer-lasting

Compound: [Sar^1, Ile^8]-AngII
- role of residues for binding (mutagenesis) (AT1R single mutants [1]): critical

Compound: CCCCc1nc(Cl)c(CO)n1Cc1ccc(-c2ccccc2-c2nn[nH]n2)cc1 [Losartan, losartan]
- binding affinity to AT1R compared to the later developed ARBs (AT1R; ref Miura et al., 2011): lower
- mode of antagonism (AT1R; ref Miura et al., 2011): surmountable antagonist

Compound: CCCCc1ncc(/C=C(\Cc2cccs2)C(=O)O)n1Cc1ccc(C(=O)O)cc1 [eprosartan]
- change of binding affinity at mutant (AT1R single mutants [2]): strong decrease

Compound: CCOc1nc2cccc(C(=O)O)c2n1Cc1ccc(-c2ccccc2-c2nnn[nH]2)cc1 [candesartan]
- role of residues for binding (mutagenesis) (AT1R single mutants [1]): critical
- dissociation rate from AT1R (AT1R; ref Takezako et al., 2004): slow
- mode of antagonism (AT1R; ref Takezako et al., 2004): insurmountable inverse agonist
